Five compounds from patent publication US20130324555A1, “Method of use of pharmaceutical formulations for the treatment of apicomplexan diseases in animals” (priority 2012, published 2013) can be followed below.

Entries after “also recorded” stand apart in the source; their conditions may differ. Like-named read-outs stand apart in the source and are kept apart here. Bounds are passed on as bounds.

The subject of data set [1] is HFF cells. The data set can be described thus: In vitro toxicity assay on host cells ([3H]-thymidine incorporation or WST-1). The following applies: for Toxicity: HFF cells. It counts as cell-based, Human. On the procedure:
Determination of the anti-apicomplexan activity of Compounds of Formula I may be determined by one skilled in the art. Parasite proliferation was monitored by using stably transfected type I RH-YFP parasites, which constitutively express Yellow Florescent Protein. Proliferation also was tested using a [^3H]-Uracil incorporation assay, as Uracil is incorporated into nucleic acids of T. gondii tachyzoites, but not mammalian cells, as they divide. Complimentary challenge assays ensured that the observed fluorescence data was due to parasite inhibition and not to quenched fluorescence. Pyrimethamine and sulfadiazine were used as positive controls, and DMSO at a concentration of 0.1% was used as the negative control. Because T. gondii is an obligate parasite, compounds that are toxic to host cells will appear to inhibit parasite growth. Therefore, all test compounds were simultaneously evaluated for efficacy and toxicity against human cells.
HFF cells were grown to 30% confluence in 96-well plates.
Inhibitory compounds and control media were added to wells in concentrations equal to those being tested in challenge assays. After 72 hours, [^3H]-Thymidine incorporation assay was conducted to assess cell growth. Alternatively, toxicity was assessed using WST-1 cell proliferation reagent (Roche). Confluent HFF cells were treated with inhibitory and control compounds. On the final day of experiment, 10 uL of WST-1 reagent was added to each well. Plates were incubated for 1 hour in the dark at 37° C., and absorbance was measured using Synergy H4 Hybrid Reader (BioTek) fluorometer at […].
A general note: Incorporation of labelled thymidine or its analogues reports DNA synthesis.

In data set [2] the test system is P. falciparum D6 (CDC/Sierra Leone). The data set can be described thus: Malaria SYBR Green 1-Based Fluorescence (MSF) Assay, strain D6. The following applies: for IC50: Plasmodium falciparum. The format is cell-based. On the procedure: (§1) Compound activity against P. falciparum, the causative agent of malaria, was assessed using the Malaria SYBR Green 1-Based Fluorescence (MSF) Assay. This microtiter plate drug sensitivity assay uses the presence of malarial DNA as a measure of parasitic proliferation. The assay is a microtiter plate drug sensitivity assay that uses the presence of malarial DNA as a measure of parasitic proliferation in the presence of antimalarial drugs or experimental compounds based on modifications of previously described methods (Plouffe et al., Proc Natl Acad Sci USA. 2008, 105, 9059-9064), (Johnson et al., Antimicrob. Agents Chemother. 2005, 49, 3463-3467).
(§2) Selected compounds were examined for activity against two strains of P. falciparum: D6 (CDC/Sierra Leone), a drug-sensitive and readily killed by chloroquine, and TM90-C235, a multi-drug resistant strain resistant to chloroquine.
(§3) D6 (CDC/Sierra Leone) and TM90-C235 (WRAIR, Thailand) laboratory strains of P. falciparum were used for each drug sensitivity assessment. The parasite strains were maintained continuously in long-term cultures as previously described in Johnson et al, and P. falciparum strains in late-ring or early-trophozoite stages were cultured in predosed 384-well microtiter drug assay plates in 38 μl culture volume per well at a starting parasitemia of 0.3% and a hematocrit of 2%. Pre-dosed, sterile, 384 well black optical bottom microtiter drug plates for use in the MSF assay were produced using a Tecan EVO Freedom Liquid Handling System (Tecan US, Durham, N.C.). Dose response plates were produced at a final concentration ranging from 0.5-10000 ng/ml in quadruplicate (twelve two-fold serial dilutions of each test compound or chloroquine control in DMSO. Each run was validated by a batch control plate with chloroquine (Sigma-Aldrich Co., Catalog #C6628) at a final concentration of 2000 ng/ml. The cultures were incubated for 72 hours at 37° C., 5% CO2, 5% O2 and 90% N2. Lysis buffer (38 μl per well), consisting of 20 mM Tris HCl, 5 mM EDTA, 1.6% Triton X, 0.016% saponin, and SYBR green I dye at a 20× concentration (Invitrogen, Catalog #S-7567) was then added to the assay plates utilizing the Tecan EVO Freedom system for a final SYBR Green concentration of 10×. Plates were incubated in the dark at room temperature in the dark for 24 hours.
(§4) Compound activity was assessed by examining for the relative fluorescence units (RFU) per well using the Tecan Genios Plus (Tecan US, Inc., Durham, N.C.). GraphPad Prism (GraphPad Software Inc., San Diego, Calif.) using the nonlinear regression (sigmoidal dose-response/variable slope) equation was used to determine IC50 values.

The subject of data set [3] is P. falciparum TM90-C235. The data set can be described thus: Malaria SYBR Green 1-Based Fluorescence (MSF) Assay, strain TM90-C235. The format is cell-based. The settings on record: for efficacy against TM90-C235 compared with D6 (cross-resistance): D6 versus TM90-C235; for IC50: Plasmodium falciparum; for C235 IC50: multi-drug resistant strain TM90-C235. On the procedure:
as §1, §2, §3, §4

In data set [4] the test system is RH-YFP tachyzoites. The data set can be described thus: Determination of static or cidal effects. It counts as cell-based, T. gondii. The settings on record: compound at 1 μM; for static or cidal effect: growth assessed at days 11, 17, 25. The method, then: In order to determine whether leading compounds in this study inhibited parasite proliferation by either a cidal or static mechanism, four were selected (3i, 3j, 7a, and 14a) and applied at four to eight times MICs50 to parasites. In this assay, RH-YFP tachyzoites were treated with each compound at 1 μM under various dosing conditions:
Condition A: Parasites were treated for four days, then compound was removed
Condition B: Parasites were treated for ten days, then compound was removed
Condition C: Compound was refreshed at four days then removed at ten days
Condition D: Compound was maintained for the duration of the experiment
The four and ten day time points were taken to reveal the impact of extended exposure of the parasites to the test substance. Compounds were refreshed at four days to examine whether compound degradation could contribute to an observed static effect. Parasite growth was assessed at days 11, 17, and 25. The growth data, as a function of ^3H-uracil uptake, is expressed in FIG. 7. 4 days, Condition A; 10 days, renewed at 4, Condition B; 10 days, Condition C; All time, Condition D. Ordinate: Counts per minute.
RH-YFP tachyzoites were treated with each compound at 1 μM under one of four conditions: a) parasites were treated for four days, then compound was removed; b) parasites were treated for ten days, then compound was removed; c) compound was refreshed at four days and removed at ten; or d) compound was maintained for the duration of the experiment. The four and ten day time points were taken to reveal the impact of extended exposure of the parasites to the test substance. Compounds were refreshed at four days to examine whether compound degradation could contribute to an observed static effect. Parasite growth was assessed at 11, 17, and 25 days.

The test system of data set [5] is THdhxgTRP tachyzoites transfected with pLK47. The data set can be described thus: Insertional mutagenesis experiments (selection of resistant mutants). The settings on record: prolonged incubation (six weeks). It counts as cell-based, T. gondii. The method, then: Insertional mutagenesis experiments were performed.
THdhxgTRP tachyzoites were transfected with pLK47 vector plasmid. Parasites were extracted from HFF cells and resuspended in 1 mL cytomix electroporation buffer solution (120 mM KCl, 150 uM CaCl2, 5 mM K2HPO4, 5 mM KH2PO4, 25 mM HEPES, 2 mM EDTA and 5 mM MgCl2 in sterile H2O). Equivalent amounts of plasmid DNA and cytomix solution containing 10×10^7 parasites were combined for a total volume of 400 uL and electroporated using BioRad electroporator at 1.5 k, […] and 100Ω. […] Successfully transfected parasites were selected by month-long treatment with mycophenolic acid (25 ug/mL) and xanthine (50 ug/mL). After one month, the mixed mutant population were exposed to 3i, 3j, 7a or 14b to select for those mutants whose gene disruption conferred resistance to the drug.

Setting [6] is: D6, chloroquine-sensitive strain D6, read-out: D6 IC50.
Where [7] appears, read: D6, chloroquine-sensitive strain D6, read-out: D6 IC50 (molar).
The mark [8] stands for this setting: chloroquine-sensitive strain D6.
The mark [9] stands for this setting: TM90, multi-drug resistant strain TM90-C235, read-out: C235 IC50.

In general, IC50 refers to the point on the concentration scale where inhibition reaches its midpoint. For the compound `CC(C)(C)c1cccc(NC(=O)c2cc(Cl)ccc2O)c1` [Compound 3i, N-(3-tert-butylphenyl)-5-chloro-2-hydroxybenzamide], in data set [1], the “toxicity to human host cells, in words” value is “not toxic to human host cells”. The Toxicity in data set [1] was over 1000 nM. The IC50 is 0.957 µg/mL in data set [2] (setting [6]), 3 µM in data set [2] (setting [7]) and over 2 µg/mL in data set [3] (setting [9]). Further, the “D6 IC50” value in data set [2] (setting [8]) stood at 0.9569 µg/mL. Also, the “efficacy against TM90-C235 compared with D6 (cross-resistance)” value in data set [3] is recorded as “two-fold higher IC50”. The “C235 IC50” value in data set [3] was over 2 µg/mL. The “static or cidal effect” value in data set [4] was “parasitostatic; also recorded: static effect”. In addition, in data set [5], the “parasite growth of mixed mutant population in the presence of compound” value (shortened to “parasite growth”) was “No parasite growth was observed; also recorded: No parasite growth was noted”.
For `CN(CC(=O)NN)C(=O)Oc1ccc(Cl)cc1C(=O)Nc1ccc(C(F)(F)F)cc1C(F)(F)F.Cl` [Compound 14b, 2-((2,4-bis(trifluoromethyl)phenyl)carbamoyl)-4-chlorophenyl (2-hydrazinyl-2-oxoethyl)(methyl)carbamate hydrochloride], in data set [1], the “toxicity to human host cells, in words” value was “not toxic to human host cells” and the Toxicity is on record as over 1000 nM. In data set [5] (hydrochloride), the “parasite growth” value is on record as “No parasite growth was observed; also recorded: No parasite growth was noted”.
With `O=C(Oc1ccc(Cl)cc1C(=O)Nc1ccc([N+](=O)[O-])cc1Cl)c1ccccc1` [Compound 7a, 4-chloro-2-((2-chloro-4-nitrophenyl)carbamoyl)phenyl benzoate], in data set [1], the “toxicity to human host cells, in words” value is given as “not toxic to human host cells” and the Toxicity was over 1000 nM. In addition, the IC50 in data set [2] (setting [6]) came to 0.295 µg/mL. Also, the IC50 in data set [2] (setting [7]) worked out at 0.7 µM. For the same compound, the “D6 IC50” value in data set [2] (setting [8]) was found to be 0.2946 µg/mL. In data set [3], the “efficacy against TM90-C235 compared with D6 (cross-resistance)” value was “equally effective” and the “C235 IC50” value came out at 0.2666 µg/mL. Further, the IC50 in data set [3] (TM90, chloroquine resistant strain TM90-C235, read-out: TM90-C235 IC50) worked out at 0.6 µM. Besides, the concentration for half-maximal inhibition (IC50) in data set [3] (setting [9]) was 0.267 µg/mL. In data set [4], the “duration of treatment after which a cidal effect was shown” value (shortened to “duration of treatment”) is “four days” and the “static or cidal effect” value is “parasitocidal; also recorded: cidal”. For the same compound, in data set [5], the “parasite growth” value is reported as “No parasite growth was observed; also recorded: No parasite growth was noted”.
As to `O=C(Nc1cc(C(F)(F)F)cc(C(F)(F)F)c1)c1cc(Cl)ccc1O` [Compound 3j], in data set [1], the “toxicity to human host cells, in words” value is “not toxic to human host cells” and the Toxicity was over 1000 nM. Also, in data set [2] (chloroquine-sensitive strain D6, read-out: D6 IC50), the IC50 was 0.593 µg/mL. Also, the “efficacy against TM90-C235 compared with D6 (cross-resistance)” value in data set [3] is on record as “equally effective”. The IC50 in data set [3] (TM90, read-out: C235 IC50) amounted to 0.541 µg/mL. For the same compound, in data set [4], the “duration of treatment” value was “four days” and the “static or cidal effect” value was “parasitocidal; also recorded: cidal”. For the same compound, in data set [5], the “parasite growth” value was “No parasite growth was observed; also recorded: No parasite growth was noted”.
Consider `CN(CC(=O)NN)C(=O)Oc1ccc(Cl)cc1C(=O)Nc1ccc([N+](=O)[O-])cc1Cl.Cl` [Compound 14a, 4-chloro-2-((2-chloro-4-nitrophenyl)carbamoyl)phenyl (2-hydrazinyl-2-oxoethyl)(methyl)carbamate hydrochloride], for which, in data set [1], the “toxicity to human host cells, in words” value is given as “not toxic to human host cells” and the Toxicity is over 1000 nM. In data set [2] (D6, read-out: D6 IC50), the IC50 worked out at 1.33 µg/mL. For the same compound, in data set [3], the “efficacy against TM90-C235 compared with D6 (cross-resistance)” value is listed as “equally effective”. Further, in data set [3] (TM90, read-out: C235 IC50), the IC50 came out at 1.32 µg/mL. Also, in data set [4], the “duration of treatment” value is “ten days” and the “static or cidal effect” value is “cidal”.
